Measured values taken from patent US20230096517A1, “GLUTARIMIDE SKELETON-BASED COMPOUNDS AND APPLICATION THEREOF” (SHANGHAITECH UNIVERSITY, priority 2020, published 2023).

tested on: MM.1S cells; assay: Proliferation inhibition (IC50) in multiple myeloma cells, cell viability with WST/CCK-8 reagent; details: Homo sapiens, MM1.S, 72 h, read-out: IC50 (half inhibitory concentration);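 further: MM.1S B-lymphoblast cells at 15,000 per well in 100 µL serum-containing RPMI1640, experiment run more than three times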
Protocol: Multiple myeloma cell line: MM.1S (B lymphoblast), purchased from ATCC (American Type Culture Collection). Culture medium was RPMI1640 supplemented with 10% FBS and 1% Penicillin-Streptomycin. The cells used were identified as correct cells by STR cells and negative for mycoplasma by routine inspections.
IC50 values of the compounds of the present disclosure were measured using Cell Titer Blue, Cell Titer GLO, or WST reagent from Promega Company. Assay details are as follows: Cells were seeded in 100 μL RPMI1640 complete medium containing serum at a density of 15,000 cells/well.
The experiment was repeated more than three times.

| SMILES | IC50 [nM] |
| --- | --- |
| Nc1cccc2c1C(=O)N(C1CCC(=O)NC1=O)C2=O (stereo not drawn) [pomalidomide, reference compound] | 9.4 ± 1.3 |
| O=C1CCC(N2C(=O)c3cccc(OCCCCCCCN4CCCCC4)c3C2=O)C(=O)N1 (stereo not drawn) [SIAIS1221079, 2-(2,6-dioxopiperidin-3-yl)-4-((7-(piperidin-1-yl)heptyl)oxy)isoindoline-1,3-dione, reference compound] | 65.9 |
| O=C1CCC(N2Cc3c(OCCCCCCNC45CC6CC(CC(C6)C4)C5)cccc3C2=O)C(=O)N1 (stereo not drawn) [SIAIS1222163, 3-(4-((6-((adamantan-1-yl)amino)hexyl)oxy)-1-oxoisoindolin-2-yl)piperidine-2,6-dione] | 2.11 |
| CC(NCCCCCCNc1cccc2c1C(=O)N(C1CCC(=O)NC1=O)C2=O)C12CC3CC(CC(C3)C1)C2 (stereo not drawn) [SIAIS1222191, 4-((6-((1-(adamantan-1-yl)ethyl)amino)hexyl)amino)-2-(2,6-dioxopiperidin-3-yl)isoindoline-1,3-dione] | 2.22 |
| O=C1CCC(N2Cc3c(OCCCCCCCN4CCCCC4)cccc3C2=O)C(=O)N1 (stereo not drawn) [SIAIS1221109, 3-(1-oxo-4-((7-(piperidin-1-yl)heptyl)oxy)isoindolin-2-yl)piperidine-2,6-dione, reference compound] | 17.6 |
| O=C1CCC(N2C(=O)c3ccc(NCCCCCCNC45CC6CC(CC(C6)C4)C5)cc3C2=O)C(=O)N1 (stereo not drawn) [SIAIS1242067, 5-((6-((adamantan-1-yl)amino)hexyl)amino)-2-(2,6-dioxopiperidin-3-yl)isoindoline-1,3-dione] | 17.7 |
| O=C1CCC(N2Cc3c(CCCCCCCCN4CCCCC4)cccc3C2=O)C(=O)N1 (stereo not drawn) [SIAIS1221107, 3-(1-oxo-4-(8-(piperidin-1-yl)octyl)isoindolin-2-yl)piperidine-2,6-dione, reference compound] | 3.93 |
| O=C1CCC(N2Cc3c(NCc4ccc(CCCNC56CC7CC(CC(C7)C5)C6)cc4)cccc3C2=O)C(=O)N1 (stereo not drawn) [SIAIS1227077, 3-(4-((4-(3-((adamantan-1-yl)amino)propyl)benzyl)amino)-1-oxoisoindolin-2-yl)piperidine-2,6-dione] | 1.93 ± 0.31 |
| O=C1CCC(N2Cc3c(CCc4ccc(CNC56CC7CC(CC(C7)C5)C6)cc4)cccc3C2=O)C(=O)N1 (stereo not drawn) [SIAIS1222051, 3-(4-(4-(((adamantan-1-yl)amino)methyl)phenethyl)-1-oxoisoindolin-2-yl)piperidine-2,6-dione] | 4.1 |
| O=C1CCC(N2Cc3cc(CCCCCCCCNC45CC6CC(CC(C6)C4)C5)ccc3C2=O)C(=O)N1 (stereo not drawn) [SIAIS271187, 3-(5-(8-((adamantan-1-yl)amino)octyl)-1-oxoisoindolin-2-yl)piperidine-2,6-dione] | 17 |
| O=C1CCC(N2Cc3c(NCc4ccc(CNC56CC7CC(CC(C7)C5)C6)cc4)cccc3C2=O)C(=O)N1 (stereo not drawn) [SIAIS1222025, 3-(4-((4-(((adamantan-1-yl)amino)methyl)benzyl)amino)-1-oxoisoindolin-2-yl)piperidine-2,6-dione] | 3.24 |
| O=C1CCC(N2Cc3c(NCCCCCCCNC45CC6CC(CC4C6)C5)cccc3C2=O)C(=O)N1 (stereo not drawn) [SIAIS1242071, 3-(4-((7-((hexahydro-2,5-methanopentalen-3a(1H)-yl)amino)heptyl)amino)-1-oxoisoindolin-2-yl)piperidine-2,6-dione] | 2.46 |
| O=C1CCC(N2Cc3c(C#CCCCCCCCNC45CC6CC(CC(C6)C4)C5)cccc3C2=O)C(=O)N1 (stereo not drawn) [SIAIS1222047, 3-(4-(9-((adamantan-1-yl)amino)non-1-yn-1-yl)-1-oxoisoindolin-2-yl)piperidine-2,6-dione] | 13 |
| O=C1CCC(N2Cc3c(NCCCCCCCCNC45CC6CC(CC(C6)C4)C5)cccc3C2=O)C(=O)N1 (stereo not drawn) [SIAIS1222045, 3-(4-((8-((adamantan-1-yl)amino)octyl)amino)-1-oxoisoindolin-2-yl)piperidine-2,6-dione] | 3.78 |
| O=C1CCC(N2C(=O)c3ccc(NCCCCCNC45CC6CC(CC(C6)C4)C5)cc3C2=O)C(=O)N1 (stereo not drawn) [SIAIS1242069, 5-((5-((adamantan-1-yl)amino)pentyl)amino)-2-(2,6-dioxopiperidin-3-yl)isoindoline-1,3-dione] | 2.27 |

Now from value to molecule:

| IC50 [nM] | SMILES |
| --- | --- |
| 0.32 ± 0.09 | O=C1CCC(N2Cc3c(NCc4ccc(CCNC56CC7CC(CC(C7)C5)C6)cc4)cccc3C2=O)C(=O)N1 (stereo not drawn) [SIAIS1227027, 3-(4-((4-(2-((adamantan-1-yl)amino)ethyl)benzyl)amino)-1-oxoisoindolin-2-yl)piperidine-2,6-dione] |
| 0.28 | O=C1CCC(N2Cc3c(OCc4ccc(CNC56CC7CC(CC(C7)C5)C6)cc4)cccc3C2=O)C(=O)N1 (stereo not drawn) [SIAIS1228157, 3-(4-((4-(((adamantan-1-yl)amino)methyl)benzyl)oxy)-1-oxoisoindolin-2-yl)piperidine-2,6-dione] |
| 0.534 | O=C1CCC(N2Cc3c(OCCCCCCCNC4CC5(CCC5)C4)cccc3C2=O)C(=O)N1 (stereo not drawn) [SIAIS1224013, 3-(1-oxo-4-((7-(spiro[3.3]heptan-2-ylamino)heptyl)oxy)isoindolin-2-yl)piperidine-2,6-dione] |
| 0.052 | CN(CCCCCCCOc1cccc2c1CN(C1CCC(=O)NC1=O)C2=O)C12CC3CC(CC(C3)C1)C2 (stereo not drawn) [SIAIS1222181, 3-(4-((7-((adamantan-1-yl)(methyl)amino)heptyl)oxy)-1-oxoisoindolin-2-yl)piperidine-2,6-dione] |
| 1.13 | O=C1CCC(N2Cc3c(OCCCCCCCNC4CCCCC4)cccc3C2=O)C(=O)N1 (stereo not drawn) [SIAIS1221187, 3-(4-((7-(cyclohexylamino)heptyl)oxy)-1-oxoisoindolin-2-yl)piperidine-2,6-dione] |
| 0.877 | O=C1CCC(N2Cc3c(OCCCCCCC(=O)NC45CC6CC(CC(C6)C4)C5)cccc3C2=O)C(=O)N1 (stereo not drawn) [SIAIS1242075, N-(adamantan-1-yl)-7-((2-(2,6-dioxopiperidin-3-yl)-1-oxoisoindolin-4-yl)oxy)heptanamide] |
| 1.1 | O=C1CCC(N2C(=O)c3cccc(NCCCCCNC45CC6CC(CC(C6)C4)C5)c3C2=O)C(=O)N1 (stereo not drawn) [SIAIS1222095, 4-((5-((adamantan-1-yl)amino)pentyl)amino)-2-(2,6-dioxopiperidin-3-yl)isoindoline-1,3-dione] |
| 0.383 | CC1(C)[C@@H]2CC[C@@]1(C)[C@@H](NCCCCCCCNc1cccc3c1C(=O)N(C1CCC(=O)NC1=O)C3=O)C2 (stereo partly drawn) [SIAIS1222041, 2-(2,6-dioxopiperidin-3-yl)-4-((7-(((1R,2S,4R)-1,7,7-trimethylbicyclo[2.2.1]heptan-2-yl)amino)heptyl)amino)isoindoline-1,3-dione] |
| 0.426 | O=C1CCC(N2Cc3c(OCCCCCCCCNC45CC6CC(CC(C6)C4)C5)cccc3C2=O)C(=O)N1 (stereo not drawn) [SIAIS1222167, 3-(4-((8-((adamantan-1-yl)amino)octyl)oxy)-1-oxoisoindolin-2-yl)piperidine-2,6-dione] |
| 0.63 | O=C1CCC(N2Cc3c(CCCCCCNC45CC6CC(CC(C6)C4)C5)cccc3C2=O)C(=O)N1 (stereo not drawn) [SIAIS1224043, 3-(4-(6-((adamantan-1-yl)amino)hexyl)-1-oxoisoindolin-2-yl)piperidine-2,6-dione] |
| 0.324 | O=C1CCC(N2C(=O)c3cccc(NCCCCCCCNC4CC5(CCC5)C4)c3C2=O)C(=O)N1 (stereo not drawn) [SIAIS1222189, 2-(2,6-dioxopiperidin-3-yl)-4-((7-(spiro[3.3]heptan-2-ylamino)heptyl)amino)isoindoline-1,3-dione] |
| 0.267 | O=C1CCC(N2Cc3c(C#CCCCCCCNC45CC6CC(CC4C6)C5)cccc3C2=O)C(=O)N1 (stereo not drawn) [SIAIS1242057, 3-(4-(8-((hexahydro-2,5-methanopentalen-3a(1H)-yl)amino)oct-1-yn-1-yl)-1-oxoisoindolin-2-yl)piperidine-2,6-dione] |
| 1.43 | O=C1CCC(N2C(=O)c3ccc(NCCCCCCCNC45CC6CC(CC(C6)C4)C5)cc3C2=O)C(=O)N1 (stereo not drawn) [SIAIS1221055, 5-((7-((adamantan-1-yl)amino)heptyl)amino)-2-(2,6-dioxopiperidin-3-yl)isoindoline-1,3-dione] |
| 0.78 | O=C1CCC(N2C(=O)c3cccc(NCCCCCCCN4CCCCC4)c3C2=O)C(=O)N1 (stereo not drawn) [SIAIS1221047, 2-(2,6-dioxopiperidin-3-yl)-4-((7-(piperidin-1-yl)heptyl)amino)isoindoline-1,3-dione, reference compound] |
| 0.123 | O=C1CCC(N2Cc3c(OCc4ccc(CCNC56CC7CC(CC(C7)C5)C6)cc4)cccc3C2=O)C(=O)N1 (stereo not drawn) [SIAIS1241169, 3-(4-((4-(2-((adamantan-1-yl)amino)ethyl)benzyl)oxy)-1-oxoisoindolin-2-yl)piperidine-2,6-dione] |
| 1.26 | O=C1CCC(N2Cc3c(NCCCCCCNCC45CC6CC(CC(C6)C4)C5)cccc3C2=O)C(=O)N1 (stereo not drawn) [SIAIS1222073, 3-(4-((6-(((adamantan-1-yl)methyl)amino)hexyl)amino)-1-oxoisoindolin-2-yl)piperidine-2,6-dione] |
| 0.854 | O=C1CCC(N2Cc3c(CCCCCCCCNC4CCCCC4)cccc3C2=O)C(=O)N1 (stereo not drawn) [SIAIS1221193, 3-(4-(8-(cyclohexylamino)octyl)-1-oxoisoindolin-2-yl)piperidine-2,6-dione] |
| 0.076 | O=C1CCC(N2C(=O)c3cccc(NCCCCCCCNC45CC6CC(CC4C6)C5)c3C2=O)C(=O)N1 (stereo not drawn) [SIAIS1242041, 2-(2,6-dioxopiperidin-3-yl)-4-((7-((hexahydro-2,5-methanopentalen-3a(1H)-yl)amino)heptyl)amino)isoindoline-1,3-dione] |

same assay, conditions: Homo sapiens, MM1.S, 72 h, read-out: IC50 (half inhibitory concentration), MM.1S multiple myeloma cells, WST reagent, 72 h treatment

| IC50 [nM] | SMILES |
| --- | --- |
| ~0.09 | O=C1CCC(N2Cc3c(OCCCCCCCNC45CC6CC(CC(C6)C4)C5)cccc3C2=O)C(=O)N1 (stereo not drawn) [SIAIS1221111, 3-(4-((7-((adamantan-1-yl)amino)heptyl)oxy)-1-oxoisoindolin-2-yl)piperidine-2,6-dione] |
| 0.16 ± 0.03 | O=C1CCC(N2C(=O)c3cccc(NCCCCCCCNC45CC6CC(CC(C6)C4)C5)c3C2=O)C(=O)N1 (stereo not drawn) [SIAIS1221053, 4-((7-((adamantan-1-yl)amino)heptyl)amino)-2-(2,6-dioxopiperidin-3-yl)isoindoline-1,3-dione] |

same assay, conditions: read-out: IC50 (half inhibitory concentration); MM.1S multiple myeloma cells, WST reagent, 72 h treatment

| IC50 [nM] | SMILES |
| --- | --- |
| 0.089 | O=C1CCC(N2Cc3c(OCCCCCCCNC45CC6CC(CC(C6)C4)C5)cccc3C2=O)C(=O)N1 (stereo not drawn) [SIAIS1221111, 3-(4-((7-((adamantan-1-yl)amino)heptyl)oxy)-1-oxoisoindolin-2-yl)piperidine-2,6-dione] |
